The source of these data is patent US10407445B2, “Hepatitis C virus inhibitors” (ENANTA PHARMACEUTICALS, INC., priority 2013, dated 2019).

Each structure is given as a SMILES string.

Test [1] deals with GT1a replicon encoding NS5A mutation Y93H. The test can be described thus: Transient replication assay, GT1a replicon with NS5A mutation Y93H. The test is classed as cell-based. The conditions noted are these: Hepatitis C virus, read-out: EC50 1a Y93H. (A replicon is a self-replicating genome or part of one, used to study replication in cells.)
The subject of the next test is HCV GT 3a replicon. The test can be described thus: HCV replicon assay, GT2a chimeric replicon expressing NS5A from GT3a strain S52. It is filed as cell-based. The settings on record: Hepatitis C virus, 72 h, read-out: EC50 3a. The protocol: The activity of compounds was determined against HCV replicons representing genotypes (GT) 1a, 1b, 2a, and 3a. To generate stable Huh-7.5-based cell lines, HCV replicons were engineered to express the Renilla luciferase reporter (hRluc) fused to the neomycin phosphotransferase (Neo) gene. GT2a and GT3a HCV replicons were based on the JFH-1 subgenomic replicon (Kato et al. 2003 Gastroenterology, 125:1808-1817), in which the NS5A gene was replaced with that of strains J6 and S52 (GT2a and G3a, respectively). The activity of compounds against GT1a replicons encoding NS5A mutations (M28T, Q30R, L31M, Y93C, and Y93H) was also determined in a transient replication assay. The parental GT1a and GT2a replicons (pH/SG-Neo(L+I) and pSG-Neo-JFH1, respectively) were licensed from Apath LLC (Saint Louis, Mo.). The parental GT 1b replicon (pFKi389lucubineo_3_3′_ET) was licensed from ReBLikon GmbH (Germany). HCV replicons were constructed by standard molecular biology techniques described below. All replicon constructs were verified by restriction enzyme digestion and DNA sequencing.
The plasmid pSG-hRlucNeo-JFH1 was generated from pSG-Neo-JFH1 (Kato et al. 2003, Gastroentrology 125:1808-1817). A fragment containing the JFH-1 5′ NTR—hRluc-Neo gene and two unique restriction sites (AgeI and PmeI) was synthesized (Integrated DNA Technologies, Coralville, Iowa). The resulting synthetic plasmid was digested with AgeI and PmeI and the excised fragment (5′NTR-hRluc-Neo) was ligated into pSG-Neo-JFH1 digested with the same enzymes to generate pSG-hRlucNeo-JFH1. To allow expression of heterologous NS5A sequences, an NS5A shuttle vector was generated from pSG-Neo-JFH1, in which the entire coding sequence of NS5A plus the first eight codons of NS5B were replaced with an AfeI restriction site. This was done by Infusion cloning (Clontech, Mountain View, Calif.) from two PCR products that were generated using pSG-Neo-JFH1 as a template and the following primer pairs:
Underlined sequences denote regions of overlap necessary for Infusion cloning. Purified PCR products were cloned directly into an NsiI/SnaBI digested pSG-Neo-JFH1 following the manufacturer's instructions to generate pSG-Neo-JFH1-5Ashuttle. The 2023 base pair AgeI/PmeI fragment from pSG-hRlucNeo-JFH1 was then ligated into pSG-Neo-JFH1-5Ashuttle to generate pSG-hRlucNeo-JFH1-5Ashuttle. To generate the 2a-2a-(J6) and 2a-3a-(S52) NS5A chimeric replicons, the full length NS5A sequences from GT2a strain J6 (accession AF177036) and GT3a strain S52 (accession GU814263), with the addition of the first eight codons of JFH-1 NS5B (5′-TCCATGTCATACTCCTGGACCGGG-3′), were synthesized by GeneArt (Life Technologies, Carlsbad Calif.). J6 and S52 NS5A sequences were then PCR amplified from the synthetic clones using the appropriate forward primer:
Underlined sequences denote regions of overlap with pSG-hRlucNeo-JFH1-5Ashuttle necessary for Infusion cloning. Purified PCR products were directly cloned into AfeI-digested shuttle vector by Infusion cloning following the manufacturer's instructions.
Stable HCV replicon cell lines were grown in complete media (Dulbecco's modified Eagle medium [DMEM], 2 mM L-glutamine, 0.1 mM essential amino acids, 1 mM sodium pyruvate, 10% heat inactivated fetal bovine serum) with the addition 500 μg/ml […] (G418). Huh7-lunet cells were maintained in the same medium without the addition of G418. Cells were routinely passaged at a dilution of 1:4 two times a week. The assay medium for both luciferase reporter HCV replicon and cytotoxicity assays used phenol red-free DMEM and lacked G418. For each stable replicon assay, a sixteen point half-log dilution series of compound was stamped (0.5 ul compound per well) into three replica 384-well plates, to which cells were added directly (4000 cells/well). […]

In general, EC50 refers to the concentration needed to bring the measured effect to its halfway point. On to `COC(=O)N[C@H](C(=O)N1C[C@]2(CCCOC2)C[C@H]1c1ncc(-c2ccc3c(ccc4cc(-c5cnc([C@@H]6C[C@@H]7CCCC[C@@H]7N6C(=O)[C@@H](NC(=O)OC)C(C)C)[nH]5)ccc43)c2)[nH]1)C(C)C` [Compound 17], for which the EC50 came to 5 nM in test [1] and 6 nM in the test on HCV GT 3a replicon.
For the compound `COC(=O)N[C@H](C(=O)N1C[C@@]2(CCCCO2)C[C@H]1c1nc(-c2ccc(-c3ccc4c(ccc5nc([C@@H]6CCCN6C(=O)[C@@H](NC(=O)OC)C(C)C)[nH]c54)c3)cc2)c[nH]1)C(C)C` [Example 3], the EC50 in test [1] was found to be 6 nM; in the test with HCV GT 3a replicon, 156 nM.
For `COC(=O)N[C@H](C(=O)N1CC2(CCOCC2)C[C@H]1c1ncc(-c2ccc(-c3ccc4c(ccc5nc([C@@H]6CCCN6C(=O)[C@@H](NC(=O)OC)C(C)C)[nH]c54)c3)cc2)[nH]1)C(C)C` [Example 83], in that order: 26 nM and 0.7 nM.
For `COC(=O)N[C@H](C(=O)N1C[C@]2(CCOC2)C[C@H]1c1ncc(-c2ccc(-c3ccc4c(ccc5nc([C@@H]6CCCN6C(=O)[C@@H](NC(=O)OC)C(C)C)[nH]c54)c3)cc2)[nH]1)C(C)C` [Compound 26], in that order: 42 nM and 2 nM.
For `COC(=O)N[C@H](C(=O)N1C[C@]2(CCCOC2)C[C@H]1c1ncc(-c2ccc(-c3ccc4c(c3)CCCc3nc([C@@H]5C[C@@H]6CCCC[C@@H]6N5C(=O)[C@@H](NC(=O)OC)C(C)C)[nH]c3-4)cc2)[nH]1)C(C)C` [Compound 40], the EC50 in test [1] was determined as 8 nM; in the test with HCV GT 3a replicon, 44 nM.
As for `COC(=O)N[C@H](C(=O)N1C[C@]2(CCCCO2)C[C@H]1c1nc(-c2ccc(-c3ccc4c(ccc5nc([C@@H]6CCCN6C(=O)[C@@H](NC(=O)OC)C(C)C)[nH]c54)c3)cc2)c[nH]1)C(C)C` [Example 2], the EC50 in test [1] stood at 9 nM; in the test with HCV GT 3a replicon it was 1 nM.
As to `COC(=O)N[C@H](C(=O)N1C[C@]2(CCCOC2)C[C@H]1c1nc2ccc3cc(-c4ccc5c(ccc6nc([C@@H]7C[C@@H]8COC[C@@H]8N7C(=O)[C@@H](NC(=O)OC)C(C)C)[nH]c65)c4)ccc3c2[nH]1)C(C)C` [Compound 36], the results for the EC50 (in test [1]; with HCV GT 3a replicon) were 8 nM and 1 nM, respectively.
`COC(=O)N[C@H](C(=O)N1CCC[C@H]1c1nc2c([nH]1)-c1ccc(-c3ccc4c(ccc5nc([C@@H]6C[C@@]7(CCCOC7)CN6C(=O)[C@@H](NC(=O)OC)C(C)C)[nH]c54)c3)cc1OC2)C(C)C` [Compound 25]: the results for the EC50 (in test [1]; with HCV GT 3a replicon) were 7 nM and 0.6 nM, respectively.
For the compound `COC(=O)N[C@H](C(=O)N1C[C@]2(CCCOC2)C[C@H]1c1ncc(-c2ccc(-c3ccc4c(c3)OCc3nc([C@@H]5CCCN5C(=O)[C@@H](NC(=O)OC)C(C)C)[nH]c3-4)cc2)[nH]1)C(C)C` [Compound 30], the EC50 in test [1] is 13 nM; in the test on HCV GT 3a replicon, 2 nM.
The corresponding values for `COC(=O)N[C@H](C(=O)N1C[C@]2(CCCO2)C[C@H]1c1ncc(-c2ccc(-c3ccc4c(ccc5nc([C@@H]6CCCN6C(=O)[C@@H](NC(=O)OC)C(C)C)[nH]c54)c3)cc2)[nH]1)C(C)C` [Example 81] are 15 nM and 3 nM.
Turning to `COC(=O)N[C@H](C(=O)N1C[C@@]2(CCOC2)C[C@H]1c1ncc(-c2ccc(-c3ccc4c(ccc5nc([C@@H]6C[C@]7(CCOC7)CN6C(=O)[C@@H](NC(=O)OC)C(C)C)[nH]c54)c3)cc2)[nH]1)C(C)C` [Compound 49], the EC50 worked out at 12 nM in test [1] and 5 nM in the test with HCV GT 3a replicon.
Consider `COC(=O)N[C@H](C(=O)N1C[C@]2(CCCOC2)C[C@H]1c1ncc(-c2ccc3c(c2)COc2cc(-c4cnc([C@@H]5C[C@@H]6CCCC[C@@H]6N5C(=O)[C@@H](NC(=O)OC)C(C)C)[nH]4)ccc2-3)[nH]1)C(C)C` [Compound 15], for which the EC50 in test [1] worked out at 5 nM; in the test on HCV GT 3a replicon it was 0.2 nM.
In the case of `COC(=O)N[C@H](C(=O)N1C[C@]2(CCCOC2)C[C@H]1c1ncc(-c2ccc3cc4cc(-c5cnc([C@@H]6C[C@@H]7CCCC[C@@H]7N6C(=O)[C@@H](NC(=O)OC)C(C)C)[nH]5)ccc4cc3c2)[nH]1)C(C)C` [Compound 13], the values for the EC50 (in test [1]; in the test on HCV GT 3a replicon) were 9 nM and 0.9 nM, respectively.
